In article PMC9687798, “Atypical Substrates of the Organic Cation Transporter 1” (Biomolecules, 2022):

Tests used:
Type in all cases: cell-based
wild-type human OCT2 = target: T1, wild-type human OCT2 (Homo sapiens, UniProt O15244); assay: Cellular uptake ratio, OCT2-overexpressing HEK293 cells vs empty vector; details: for uptake by OCT2 (normalised to empty vector): 1 µM and 100 µM substance; for OCT2 transport category: based on ratio uptake data at 1 µM
T1 sequence (O15244 1-555): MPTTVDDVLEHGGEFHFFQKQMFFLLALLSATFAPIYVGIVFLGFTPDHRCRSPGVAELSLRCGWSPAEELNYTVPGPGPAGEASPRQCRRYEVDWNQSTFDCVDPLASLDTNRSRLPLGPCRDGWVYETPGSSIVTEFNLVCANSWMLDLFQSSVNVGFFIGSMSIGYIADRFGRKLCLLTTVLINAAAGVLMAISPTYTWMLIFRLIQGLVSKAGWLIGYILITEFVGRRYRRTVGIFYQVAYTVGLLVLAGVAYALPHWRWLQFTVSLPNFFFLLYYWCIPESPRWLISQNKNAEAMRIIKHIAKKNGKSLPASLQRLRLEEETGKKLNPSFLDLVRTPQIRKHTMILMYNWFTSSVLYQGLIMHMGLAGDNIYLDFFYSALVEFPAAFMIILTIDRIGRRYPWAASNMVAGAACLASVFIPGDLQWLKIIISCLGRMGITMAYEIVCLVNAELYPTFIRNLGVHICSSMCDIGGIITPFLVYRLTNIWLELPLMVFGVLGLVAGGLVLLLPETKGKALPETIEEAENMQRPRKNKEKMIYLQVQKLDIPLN
Outline: (§1)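 Flp-In HEK293 cells stably expressing transporter, or empty pcDNA5/FRT vector as control, incubated at 37 °C in HBSS with 10 mM HEPES, pH 7.4, with substrate. Uptake quantified by LC-MS with internal standard and normalised to total protein. Ratio = total uptake in transporter cells divided by that in empty-vector cells.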

OCT3 = target: T2, OCT3 (Homo sapiens, UniProt O75751); assay: Cellular uptake ratio, OCT3-overexpressing HEK293 cells vs empty vector; details: for OCT3 transport category: based on ratio uptake data at 1 µM
T2 construct: expressed in transfected cells; host or cells: HEK293, stably transfected; gift from Dr. Koepsell and Dr. Gorbulev (University of Würzburg)
T2 sequence (O75751 1-556): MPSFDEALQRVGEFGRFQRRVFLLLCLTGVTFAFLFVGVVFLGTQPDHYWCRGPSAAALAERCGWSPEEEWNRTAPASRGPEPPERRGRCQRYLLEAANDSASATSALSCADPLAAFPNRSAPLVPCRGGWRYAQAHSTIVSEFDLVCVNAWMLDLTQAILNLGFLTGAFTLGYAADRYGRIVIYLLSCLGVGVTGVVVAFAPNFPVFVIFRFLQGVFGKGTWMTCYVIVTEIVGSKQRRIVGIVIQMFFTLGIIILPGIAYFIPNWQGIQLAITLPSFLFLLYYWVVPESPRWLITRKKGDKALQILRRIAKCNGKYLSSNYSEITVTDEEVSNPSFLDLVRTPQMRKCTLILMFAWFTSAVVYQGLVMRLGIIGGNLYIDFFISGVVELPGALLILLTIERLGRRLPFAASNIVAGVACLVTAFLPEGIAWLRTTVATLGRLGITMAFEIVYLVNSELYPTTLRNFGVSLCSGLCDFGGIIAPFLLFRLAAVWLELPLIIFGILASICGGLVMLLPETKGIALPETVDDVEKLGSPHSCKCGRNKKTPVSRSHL
Outline: as §1

OCT1 wild-type = target: T3, OCT1 wild-type (Homo sapiens, UniProt O15245); assay: Inhibition of OCT1-mediated prostaglandin uptake by MPP+; details: 1 mM inhibitor, 100 µM prostaglandin
T3 construct: expressed in transfected cells
T3 sequence (O15245 whole entry): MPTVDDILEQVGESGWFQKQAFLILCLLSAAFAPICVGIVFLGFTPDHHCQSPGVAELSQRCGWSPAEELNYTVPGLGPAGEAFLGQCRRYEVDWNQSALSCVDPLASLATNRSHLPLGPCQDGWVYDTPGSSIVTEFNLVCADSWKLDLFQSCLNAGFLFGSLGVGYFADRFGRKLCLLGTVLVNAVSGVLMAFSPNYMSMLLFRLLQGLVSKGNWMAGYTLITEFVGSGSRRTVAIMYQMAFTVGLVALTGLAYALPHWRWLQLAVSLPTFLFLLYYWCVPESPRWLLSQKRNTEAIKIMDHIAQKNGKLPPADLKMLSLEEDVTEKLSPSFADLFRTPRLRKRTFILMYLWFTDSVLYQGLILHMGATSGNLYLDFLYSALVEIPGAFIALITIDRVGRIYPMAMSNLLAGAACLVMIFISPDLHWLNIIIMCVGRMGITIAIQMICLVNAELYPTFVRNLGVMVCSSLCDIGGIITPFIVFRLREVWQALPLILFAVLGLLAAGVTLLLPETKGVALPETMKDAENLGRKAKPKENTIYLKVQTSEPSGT
Procedure: Forty-eight hours before the transport experiments, 600,000 cells were plated on 12-well plates pre-coated with poly-D-lysine and incubated at 37 °C with 5% CO2. The prepared 12-well plate with cells was positioned on a heating plate pre-warmed to 37 °C. After removing the medium, the cells were washed with 37 °C HBSS+ (10 mM HEPES in Hank’s balanced salt solution, pH 7.4). Then, one pre-defined concentration of a substrate was added to each well. The incubation period was stopped by adding 2 mL of 4 °C HBSS+ and removing the cells from the heating plate. The cells were washed twice with 4 °C HBSS+. For cell lysis, the cells were incubated for 15 min with 500 µL of 80% acetonitrile (LGC Standards, Wesel, Germany), which contained a respective internal standard (Table 1).
Figure 8 Cellular uptake of prostaglandins by OCT1. Cellular uptake ratios were determined in HEK293 cells that were transfected stably with OCT1 or its variants that were incubated with 1 µM (light blue), 10 µM (medium blue), and 100 µM (dark blue) of prostaglandin E2 and F2α for 120 s. […] Statistical significance of the uptake ratio between OCT1 and its variants and between inhibited and not inhibited OCT1 was determined using an unpaired students t-test with * p < 0.05, ** p < 0.01, and *** p < 0.001.

SMILES: Nc1ccn([C@H]2CC[C@@H](CO)O2)c(=O)n1 [Zalcitabine, zalcitabine]
- uptake by OCT2 (normalised to empty vector) (wild-type human OCT2): cellular uptake by OCT2 was observed
- OCT2 transport category (wild-type human OCT2): + (good substrates of OCTs when the intrinsic clearance is between 5–15 or the ratio is 2–10)
- OCT3 transport category (OCT3): 0 (no transport by OCT1, OCT2, and OCT3 occurred (i.e., no kinetic parameters or uptake ratio <2 without significance))

SMILES: COc1cc(Cc2cnc(N)nc2N)cc(OC)c1OC [Trimethoprim, trimethoprim]
- uptake by OCT2 (normalised to empty vector) (wild-type human OCT2): only minimal
- OCT2 transport category (wild-type human OCT2): +/− (poor transport with a Clint < 5 or ratio between 1–2 with statistical significance (p < 0.05))
- OCT3 transport category (OCT3): 0 (no transport by OCT1, OCT2, and OCT3 occurred (i.e., no kinetic parameters or uptake ratio <2 without significance))

SMILES: CCCCC[C@H](O)/C=C/[C@@H]1[C@@H](C/C=C\CCCC(=O)O)[C@@H](O)C[C@H]1O [Prostaglandin F2α, prostaglandin F2α]
- uptake by OCT1 wild-type with the inhibitor MPP+ (OCT1 wild-type): not statistically significant

SMILES: N=C(N)c1ccc(OCCCCCOc2ccc(C(=N)N)cc2)cc1 [Pentamidine, pentamidine]
- OCT2 transport category (wild-type human OCT2): 0 (no transport by OCT1, OCT2, and OCT3 occurred (i.e., no kinetic parameters or uptake ratio <2 without significance))
- OCT3 transport category (OCT3): 0 (no transport by OCT1, OCT2, and OCT3 occurred (i.e., no kinetic parameters or uptake ratio <2 without significance))

SMILES: CCCCC[C@H](O)/C=C/[C@H]1[C@H](O)CC(=O)[C@@H]1C/C=C\CCCC(=O)O [Prostaglandin E2, prostaglandin E2]
- uptake by OCT1 wild-type with the inhibitor MPP+ (OCT1 wild-type): statistically significantly reduced uptake

SMILES: Nc1nc(=O)n([C@@H]2CS[C@H](CO)O2)cc1F [Emtricitabine, emtricitabine]
- uptake by OCT2 (normalised to empty vector) (wild-type human OCT2): cellular uptake by OCT2 was observed
- uptake ratio by OCT3 (normalised to empty vector) (OCT3; 1 µM and 100 µM substance): below 2

SMILES: N[C@@H](Cc1ccc(O)c(O)c1)C(=O)O [Levodopa, levodopa]
- OCT2 transport category (wild-type human OCT2): 0 (no transport by OCT1, OCT2, and OCT3 occurred (i.e., no kinetic parameters or uptake ratio <2 without significance))
- OCT3 transport category (OCT3): 0 (no transport by OCT1, OCT2, and OCT3 occurred (i.e., no kinetic parameters or uptake ratio <2 without significance))
